Series [1] is described as follows: Moisture sorption analysis. The conditions noted are these: between 10 and 80% relative humidity. Type of series: physicochemical. An excerpt:
Various methods, including moisture sorption analysis, Karl Fischer analysis, X-ray powder diffraction (XRD) and ^13C solid-state nuclear magnetic resonance (SSNMR), are used to characterize SAM Classic Hydrate.
The SAM Classic Hydrate crystal structure retains approximately 6-11% water between 10 and 80% relative humidity. The hydrate rapidly equilibrates with the atmosphere, such that the water content observed by analytical techniques is a function of the relative humidity at which the sample was equilabrated.

The target in the next series is B3 receptor (Homo sapiens, UniProt P13945). The conditions noted are these: single dose; as described in WO 98/09625; cited from earlier work.
Sequence of B3 receptor (P13945 whole entry): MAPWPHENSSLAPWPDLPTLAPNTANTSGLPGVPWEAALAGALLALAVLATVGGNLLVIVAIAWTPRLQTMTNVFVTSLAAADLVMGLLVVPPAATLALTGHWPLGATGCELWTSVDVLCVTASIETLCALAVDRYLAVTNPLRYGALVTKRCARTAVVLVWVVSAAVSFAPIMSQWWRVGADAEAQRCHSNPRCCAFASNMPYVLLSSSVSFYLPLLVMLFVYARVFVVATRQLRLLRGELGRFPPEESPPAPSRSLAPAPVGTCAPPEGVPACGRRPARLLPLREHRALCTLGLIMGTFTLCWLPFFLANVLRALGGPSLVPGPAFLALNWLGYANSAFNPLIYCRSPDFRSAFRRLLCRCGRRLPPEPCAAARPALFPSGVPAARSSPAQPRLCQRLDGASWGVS

In the case of `CC(C)(Cc1ccc(Oc2ccc(C(N)=O)cn2)cc1)NC[C@H](O)COc1cccc2[nH]c3ccccc3c12.CC(C)(Cc1ccc(Oc2ccc(C(N)=O)cn2)cc1)NC[C@H](O)COc1cccc2[nH]c3ccccc3c12.O=C(O)CCC(=O)O` [SAM Classic Hydrate, (S)-(3-pyridinecarboxamide,6-[4-[2-[[3-(9H-carbazol-4-yloxy)-2-hydroxypropyl]amino]-2-methylpropyl]phenoxy])-hemi-succinate salt], in series [1], the “water retained by the crystal structure (moisture sorption profile)” value was 6-11%. For `CC(C)(Cc1ccc(Oc2ccc(C(N)=O)cn2)cc1)NC[C@H](O)COc1cccc2[nH]c3ccccc3c12` [SAM Classic free base], the “% of isoproterenol's response” value at B3 receptor is “at least 30%”.
